Assay results: PMC11676982, “Heterotropic Activation of Cytochrome P450 3A4 by Perillyl Alcohol” (Pharmaceutics, 2024)
Like-named read-outs stand apart in the source and are kept apart here.

Experiments:
CYP2C9 [1] = molecular target: T1, CYP2C9 (Homo sapiens, UniProt P11712); assay: Direct CYP inhibition assay in pooled HLMs, CYP2C9 (tolbutamide)
CYP3A4 [2] = molecular target: T2, CYP3A4 (Homo sapiens, UniProt P08684); assay: Kinetic parameters of MDZ hydroxylation in pooled HLMs in the presence of (−)-POH; assay type: in vitro ADME; details: 100 μM (−)-POH
T2 sequence (P08684 whole entry): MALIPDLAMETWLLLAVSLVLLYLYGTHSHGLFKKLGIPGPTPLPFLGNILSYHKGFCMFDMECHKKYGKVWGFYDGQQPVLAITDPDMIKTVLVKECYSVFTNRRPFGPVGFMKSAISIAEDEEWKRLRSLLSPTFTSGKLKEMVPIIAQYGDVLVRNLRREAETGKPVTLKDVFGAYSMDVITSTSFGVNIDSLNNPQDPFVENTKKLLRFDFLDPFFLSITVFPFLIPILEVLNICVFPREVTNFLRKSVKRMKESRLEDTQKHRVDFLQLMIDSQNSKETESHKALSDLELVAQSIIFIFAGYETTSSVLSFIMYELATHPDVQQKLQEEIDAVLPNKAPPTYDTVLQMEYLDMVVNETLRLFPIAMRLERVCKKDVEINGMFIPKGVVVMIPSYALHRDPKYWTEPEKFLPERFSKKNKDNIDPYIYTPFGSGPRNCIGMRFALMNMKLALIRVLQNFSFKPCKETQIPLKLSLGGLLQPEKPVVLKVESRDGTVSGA
Description: The supernatants obtained after centrifuging at 3000× g for 20 min at 4 °C were injected into LC-MS/MS for analysis. The experiment was performed using four separate samples.
Kinetic parameters were estimated using GraphPad Prism to plot activities against the log of MDZ concentration in the presence of (–)-POH.

CYP2B6 [3] = molecular target: T3, CYP2B6 (Homo sapiens, UniProt P20813); assay: Metabolism-dependent inhibition assay (IC50 shift) in pooled HLMs, CYP2B6; details: substrate bupropion; for IC50: CYP2B6, pooled HLMs, 95% CI in parentheses
T3 sequence (P20813 1-491): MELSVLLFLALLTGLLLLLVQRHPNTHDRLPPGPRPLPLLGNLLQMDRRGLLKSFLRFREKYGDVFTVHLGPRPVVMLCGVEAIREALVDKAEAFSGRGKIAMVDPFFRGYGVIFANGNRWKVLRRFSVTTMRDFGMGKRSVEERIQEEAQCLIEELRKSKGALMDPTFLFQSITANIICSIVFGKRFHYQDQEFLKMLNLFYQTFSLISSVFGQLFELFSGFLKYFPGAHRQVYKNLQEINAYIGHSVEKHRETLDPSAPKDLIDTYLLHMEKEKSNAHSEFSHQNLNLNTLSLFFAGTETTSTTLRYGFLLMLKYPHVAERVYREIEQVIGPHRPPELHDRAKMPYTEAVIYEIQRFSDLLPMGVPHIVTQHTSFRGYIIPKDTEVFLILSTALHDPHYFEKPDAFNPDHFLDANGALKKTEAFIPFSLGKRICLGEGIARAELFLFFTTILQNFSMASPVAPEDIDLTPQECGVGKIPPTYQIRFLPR
Description: The experiments for determining metabolism-dependent inhibition were conducted utilizing a non-dilution method. […] The pre-incubation was initiated by the addition of 1 mM NADPH and incubation for 30 min. Subsequently, final incubation was performed with the addition of a substrate (5 μM coumarin or 50 μM bupropion) in the presence of NADPH for 10 min; the total volume of the mixture was 200 μL. […] Mixtures were subjected to centrifugation at 3000× g for 20 min at 4 °C, and the supernatants were analyzed using LC-MS/MS. The experiment was performed using three separate samples.
The CYP-mediated activities in the presence of test substances were expressed as percentages of the corresponding control values.

rCYP3A4 = molecular target: T4, rCYP3A4 (Homo sapiens, UniProt P08684); assay: Enzyme activity assay using rCYP3A4 with or without cytochrome b5 (MDZ 1′-hydroxylation); assay type: biochemical
T4 construct: host or cells: baculovirus-transfected insect cells
T4 sequence (P08684 whole entry): as the sequence (P08684 whole entry) above
Description: Incubation mixtures (final volume, 200 μL) contained 0.1 M PPB (pH 7.4), 50 pmol/mL rCYP3A4 with or without cytochrome b5, 1 mM NADPH, 5 μM MDZ, and POH (0–100 μM). After preincubating for 5 min, the reactions were initiated by adding 1 mM NADPH and incubated for 10 min. […] The experiment was performed using three separate samples.

CYP2A6 = molecular target: T5, CYP2A6 (Homo sapiens, UniProt P11509); assay: Direct CYP inhibition assay in pooled HLMs, CYP2A6 (coumarin); assay type: in vitro ADME; details: pooled HLMs 0.2 mg/mL; substrate coumarin 5 μM; 10 min; 95% CI in parentheses; read-out: IC50 against CYP2A6
T5 sequence (P11509 1-494): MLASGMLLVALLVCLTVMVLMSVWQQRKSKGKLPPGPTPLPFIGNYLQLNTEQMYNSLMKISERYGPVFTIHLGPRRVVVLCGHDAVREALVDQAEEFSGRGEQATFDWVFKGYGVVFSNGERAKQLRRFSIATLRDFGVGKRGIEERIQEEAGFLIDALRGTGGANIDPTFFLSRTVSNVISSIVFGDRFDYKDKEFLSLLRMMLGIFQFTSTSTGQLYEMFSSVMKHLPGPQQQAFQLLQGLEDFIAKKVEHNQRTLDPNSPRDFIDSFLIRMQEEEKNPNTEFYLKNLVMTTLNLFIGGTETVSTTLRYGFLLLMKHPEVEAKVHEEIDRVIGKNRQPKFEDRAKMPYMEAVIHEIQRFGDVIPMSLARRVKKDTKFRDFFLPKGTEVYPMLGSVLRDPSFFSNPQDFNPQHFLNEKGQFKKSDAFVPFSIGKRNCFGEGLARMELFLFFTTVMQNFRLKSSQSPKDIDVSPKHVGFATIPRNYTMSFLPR

CYP2C9 [4] = molecular target: T1, CYP2C9; details: microsomes, 10 min, 50 μM, pH 7.4
CYP2C19 = CYP2C19 (Homo sapiens, UniProt P33261); assay: Direct CYP inhibition assay in pooled HLMs, CYP2C19 (S-mephenytoin)
Sequence of CYP2C19 (P33261 whole entry): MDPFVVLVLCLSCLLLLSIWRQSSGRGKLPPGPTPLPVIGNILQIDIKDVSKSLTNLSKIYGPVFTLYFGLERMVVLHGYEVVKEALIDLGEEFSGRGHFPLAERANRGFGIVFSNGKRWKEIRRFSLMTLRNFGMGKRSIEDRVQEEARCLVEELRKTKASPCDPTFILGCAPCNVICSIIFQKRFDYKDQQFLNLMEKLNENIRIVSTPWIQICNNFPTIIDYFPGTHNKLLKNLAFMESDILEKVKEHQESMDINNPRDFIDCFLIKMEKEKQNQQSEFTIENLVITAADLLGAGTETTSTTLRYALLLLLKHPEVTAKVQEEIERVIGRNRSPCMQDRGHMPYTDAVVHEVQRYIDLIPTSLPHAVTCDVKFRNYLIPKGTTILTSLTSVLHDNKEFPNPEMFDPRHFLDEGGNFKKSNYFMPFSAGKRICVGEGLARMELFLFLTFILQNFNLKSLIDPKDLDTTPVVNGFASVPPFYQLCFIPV

CYP2E1 = CYP2E1 (Homo sapiens, UniProt P05181); assay: Direct CYP inhibition assay in pooled HLMs, CYP2E1 (chlorzoxazone); assay type: in vitro ADME; details: pooled HLMs 0.2 mg/mL; substrate chlorzoxazone 50 μM; 10 min; read-out: IC50 against CYP2E1
Sequence of CYP2E1 (P05181 whole entry): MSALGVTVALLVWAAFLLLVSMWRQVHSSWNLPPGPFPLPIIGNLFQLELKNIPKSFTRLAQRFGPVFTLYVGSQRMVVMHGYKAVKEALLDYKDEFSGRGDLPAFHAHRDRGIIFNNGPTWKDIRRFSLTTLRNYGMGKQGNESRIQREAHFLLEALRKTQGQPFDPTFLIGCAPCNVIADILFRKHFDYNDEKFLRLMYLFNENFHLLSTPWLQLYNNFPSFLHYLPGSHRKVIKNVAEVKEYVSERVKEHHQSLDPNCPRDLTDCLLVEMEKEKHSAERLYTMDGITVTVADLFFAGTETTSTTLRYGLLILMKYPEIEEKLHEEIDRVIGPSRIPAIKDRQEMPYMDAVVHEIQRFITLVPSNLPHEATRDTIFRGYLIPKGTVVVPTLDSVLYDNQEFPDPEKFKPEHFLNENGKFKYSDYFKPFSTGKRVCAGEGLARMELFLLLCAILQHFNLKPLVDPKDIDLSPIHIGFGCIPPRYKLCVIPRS

CYP2B6 [5] = molecular target: T3, CYP2B6; assay: Direct CYP inhibition assay in pooled HLMs, CYP2B6 (bupropion)
CYP3A4 [6] = molecular target: T2, CYP3A4
Description: To assess the effect of POH on the kinetics of the formation of 1′-hydroxymidazolam (1′-OH-MDZ) and 4-hydroxymidazolam (4-OH-MDZ), 5 μM MDZ was incubated with POH (0–100 μM) in hHOs for 24 h at 37 °C in a CO2 incubator. Samples were incubated in 24-well culture plates, with each well containing a total volume of 0.7 mL. At 2, 4, 6, and 24 h, 70 μL of medium was sampled, and reaction termination was achieved by adding an equal volume of ice-cold acetonitrile containing 100 nM carbamazepine as an internal standard. The supernatants were analyzed using LC-MS/MS after centrifugation at 10,000× g for 10 min at 4 °C. […] Data were normalized for protein concentrations measured using the Pierce™ BCA Protein Assay Kit (Thermo Fisher Scientific, Waltham, MA, USA) following the manufacturer’s instructions. The experiment was performed using four separate samples.

CYP3A4 and CYP2C9 = assay: Effect of POH on fimasartan (FMS) metabolism in pooled HLMs: FMS S-oxide formation; assay type: in vitro ADME, human; details: FMS 30 μM, (−)-POH 3.2–100 μM
Description: The substrates were applied at a concentration that approximated their Km values. The reactions were preincubated for 5 min before being initiated with the addition of 1 mM NADPH. After 10 min incubation, reactions containing atorvastatin, buspirone, FMS, or nifedipine were terminated by the addition of 200 μL of ice-cold acetonitrile with 100 nM carbamazepine as an internal standard. For terminating reactions with donepezil or tadalafil, 200 μL of ice-cold methanol containing 0.5% (v/v) formic acid and 1 μM carbamazepine as internal standard was added to samples. […] The experiment was performed using three separate samples.

T1 sequence (P11712 whole entry): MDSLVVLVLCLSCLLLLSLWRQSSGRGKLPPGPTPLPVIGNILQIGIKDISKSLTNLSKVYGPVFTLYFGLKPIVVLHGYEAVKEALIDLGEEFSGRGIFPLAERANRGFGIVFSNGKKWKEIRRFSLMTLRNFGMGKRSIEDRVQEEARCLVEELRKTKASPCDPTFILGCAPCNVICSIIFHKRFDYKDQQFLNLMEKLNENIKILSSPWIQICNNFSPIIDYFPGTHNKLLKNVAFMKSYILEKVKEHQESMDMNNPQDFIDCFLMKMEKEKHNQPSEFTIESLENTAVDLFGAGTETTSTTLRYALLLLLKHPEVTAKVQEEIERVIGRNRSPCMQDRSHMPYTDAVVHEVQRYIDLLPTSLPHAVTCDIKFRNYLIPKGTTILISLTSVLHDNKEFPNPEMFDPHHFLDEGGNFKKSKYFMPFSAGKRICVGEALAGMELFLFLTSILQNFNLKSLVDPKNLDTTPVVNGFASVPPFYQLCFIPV

`C=C(C)[C@@H]1CC=C(CO)CC1` [(−)-POH, (−)-perillyl alcohol] was tested. Which IC50 (CYP2C9 [1]) did it give?
The IC50 was greater than 50 µM.

And the “Increase of Vmax/Km value of MDZ 1′-hydroxylation compared with absence of (−)-POH” value (CYP3A4 [2])?
The value was 2.67 fold.

And the “Increase of Vmax/Km value of MDZ 1′-hydroxylation compared with absence of (−)-POH” value (CYP3A4 [2]; listed as POH)?
Its value is 2.7 fold.

And the IC50 (CYP2B6 [3]; IC50, pre-incubation with NADPH, 30 min pre-incubation with NADPH)?
The IC50 was 13.4 µM.

And the IC50 (CYP2B6 [3]; IC50, pre-incubation without NADPH, 30 min pre-incubation without NADPH)?
The IC50 was 13.7 µM.

And the “IC50 fold-shift, CYP2B6” value (CYP2B6 [3]; IC50 without NADPH/IC50 with NADPH)?
Its value is 1.02.

And the “Enhancement of MDZ 1′-hydroxylation” value (rCYP3A4; rCYP3A4 in the absence of cytochrome b5, POH 0–100 μM)?
The value was “No significant enhancement”.

And the “CYP3A4 activity for 1′-OH-MDZ formation compared with control without (−)-POH” value (rCYP3A4; rCYP3A4 in the presence of cytochrome b5, 100 μM (−)-POH, 5 μM MDZ)?
The value was 1.57 fold.

What about the IC50 (CYP2A6) of the same compound?
The IC50 was 15.7 µM.

What about the “CYP2C9 activity, % of the control level” value (CYP2C9 [4]) of the same compound?
The value was 64.2%.

What about the IC50 (CYP2C19) of the same compound?
Its IC50 is greater than 50 µM.

What about the IC50 (CYP2E1) of the same compound?
The IC50 was greater than 50 µM.

What about the IC50 (CYP2B6 [5]) of the same compound?
Its IC50 is 6.99 µM.

And the “Rate of 1′-OH-MDZ formation in hHOs” value (CYP3A4 [6]; 2.5 μM)?
The value was 1.86 (1.64–2.07) pmol/h/mg protein.

And the “Rate of 1′-OH-MDZ formation in hHOs” value (CYP3A4 [6]; 10 μM)?
Its value is 2.04 (1.88–2.20) pmol/h/mg protein.

What about the “Rate of 1′-OH-MDZ formation in hHOs” value (CYP3A4 [6]; 25 μM) of the same compound?
Its value is 2.34 (2.18–2.49) pmol/h/mg protein.

And the “Rate of 1′-OH-MDZ formation in hHOs” value (CYP3A4 [6]; 50 μM)?
The value was 3.21 (2.93–3.48) pmol/h/mg protein.

And the “Formation rate of 4-OH-MDZ in hHOs” value (CYP3A4 [6]; 100 μM)?
Its value is 0.159 ± 0.016 pmol/h/mg protein.

What about the “Increase of the rate of 1′-OH-MDZ formation compared with absence of (−)-POH” value (CYP3A4 [6]; 100 μM) of the same compound?
Its value is 2.05 fold.

What about the “Formation of FMS S-oxide” value (CYP3A4 and CYP2C9) of the same compound?
The value was “reduced”.
